According to PubChem BioAssay AID1259407 (Chemical Carcinogenesis Research Information System (CCRIS), 2018):
Activity calls are given as the source filed them. No rule for the calls is given here.

Test system: CCRIS mutagenicity, Ames/micronucleus/aberration tests
Assay: CCRIS mutagenicity studies
[1] = Test System: AMES SALMONELLA TYPHIMURIUM, Strain/Indicator: TA98, Metabolic Activation: NONE, Method: STANDARD PLATE
[2] = Test System: AMES SALMONELLA TYPHIMURIUM, Strain/Indicator: TA100, Metabolic Activation: NONE, Method: STANDARD PLATE

CCN(CC)c1ccc2c(-c3ccc(S(=O)(=O)O)cc3S(=O)(=O)[O-])c3ccc(=[N+](CC)CC)cc-3oc2c1
mutagenic call (End Point: IN VIVO MICRONUCLEUS, Test System: BONE MARROW POLYCHROMATIC ERYTHROCYTES, Species: MOUSE, Strain/Sex: DDY/MALE, Route: IP): inactive; negative
mutagenic call (Test System: AMES SALMONELLA TYPHIMURIUM, Strain/Indicator: TA98, Metabolic Activation: HAMSTER, LIVER, S-9, AROCLOR 1254 (10%), Method: STANDARD PLATE): active; positive
mutagenic call [1]: inactive; negative
mutagenic call (Test System: AMES SALMONELLA TYPHIMURIUM, Strain/Indicator: TA98, Metabolic Activation: RAT, LIVER, S-9, AROCLOR 1254 (10%), Method: STANDARD PLATE): active; positive
mutagenic call (Test System: AMES SALMONELLA TYPHIMURIUM, Strain/Indicator: TA100, Metabolic Activation: HAMSTER, LIVER, S-9, AROCLOR 1254 (10%), Method: STANDARD PLATE): inactive; negative
mutagenic call [2]: inactive; negative
mutagenic call (Test System: AMES SALMONELLA TYPHIMURIUM, Strain/Indicator: TA100, Metabolic Activation: RAT, LIVER, S-9, AROCLOR 1254 (10%), Method: STANDARD PLATE): inactive; negative
mutagenic call (Test System: AMES SALMONELLA TYPHIMURIUM, Strain/Indicator: TA1538, Metabolic Activation: NONE, Method: STANDARD PLATE): inactive; negative
mutagenic call (Test System: AMES SALMONELLA TYPHIMURIUM, Strain/Indicator: TA1538, Metabolic Activation: RAT, LIVER, S-9, AROCLOR 1254, Method: STANDARD PLATE): inactive; negative
mutagenic call (Test System: MOUSE LYMPHOMA, Strain/Indicator: L5178Y (TK+/TK-), Metabolic Activation: NONE, Method: SUSPENSION/PLATE): inactive; negative
mutagenic call (Test System: MOUSE LYMPHOMA, Strain/Indicator: L5178Y (TK+/TK-), Metabolic Activation: RAT, LIVER, S-9, AROCLOR 1254, Method: SUSPENSION/PLATE): active; positive

CCCCOc1cc(OC)ccc1C(=O)NOC(C)=O
mutagenic call [2]: active; positive
mutagenic call (Test System: AMES SALMONELLA TYPHIMURIUM, Strain/Indicator: TA100, Metabolic Activation: RAT, S-9, AROCLOR, Method: STANDARD PLATE): active; positive

ONc1ccc(Cl)cc1
mutagenic call [1]: inactive; negative
mutagenic call [2]: inactive; negative
mutagenic call (Test System: AMES SALMONELLA TYPHIMURIUM, Strain/Indicator: TA1535, Metabolic Activation: NONE, Method: STANDARD PLATE): inactive; negative
mutagenic call (Test System: E. COLI, Strain/Indicator: WP2 UVRA(P), Metabolic Activation: NONE, Method: STANDARD PLATE): inactive; negative
mutagenic call (Test System: E. COLI, Strain/Indicator: WP2 UVRA, Metabolic Activation: NONE, Method: FLUCTUATION TEST): inactive; negative
mutagenic call (Test System: E. COLI, Strain/Indicator: WP2 UVRA, Metabolic Activation: NONE, Method: STANDARD PLATE): inactive; negative

CO[C@H](C)[C@](O)(C(=O)OCC1=CCN2CC[C@H](O)[C@@H]12)C(C)C
mutagenic call (Test System: AMES SALMONELLA TYPHIMURIUM, Strain/Indicator: TA100, Metabolic Activation: HAMSTER, LIVER, S-9, PCB, Method: PREINCUBATION): inactive; negative; dose related trend; by authors criteria results are positive
mutagenic call (Test System: AMES SALMONELLA TYPHIMURIUM, Strain/Indicator: TA100, Metabolic Activation: RAT, LIVER, S-9, PCB, Method: PREINCUBATION): inactive; negative; dose related trend; by authors criteria results are positive

COc1ccc2nc(N)[nH]c2c1
mutagenic call (Test System: AMES SALMONELLA TYPHIMURIUM, Strain/Indicator: TA98, Metabolic Activation: RAT, LIVER, S-9, AROCLOR 1254, Method: PREINCUBATION): inactive; negative
mutagenic call (Test System: AMES SALMONELLA TYPHIMURIUM, Strain/Indicator: TA100, Metabolic Activation: RAT, LIVER, S-9, AROCLOR 1254, Method: PREINCUBATION): inactive; negative

C=CC(=O)CC
mutagenic call (Test System: AMES SALMONELLA TYPHIMURIUM, Strain/Indicator: TA100, Metabolic Activation: NONE, Method: PREINCUBATION): active; positive
mutagenic call (Test System: AMES SALMONELLA TYPHIMURIUM, Strain/Indicator: TA100, Metabolic Activation: RAT, LIVER, S-9, AROCLOR, Method: PREINCUBATION): active; positive

BrCc1cccc2c1-c1cccc3cccc-2c13
mutagenic call [1]: active; positive
mutagenic call [2]: active; positive
